The source of these data is patent US7625929B2, “Oxophenyl-cyclohexyl-propanolamine derivatives, production and use thereof in therapeutics” (sanofi-aventis, priority 2002, dated 2009).

Usually melting point stands for the temperature, or range, at which the solid turns liquid. Turning to `CS(=O)(=O)c1cc(OC[C@@H](O)CN[C@H]2CC[C@H](c3ccc(C(=O)N4CCC5(CC4)Cc4ccccc4C5)cc3)CC2)ccc1O` [compound No. 13, trans-4-{[(2S)-3-({4-[4-(1,3-dihydro-1′H-spiro[indene-2,4′-piperidin]-1′-ylcarbonyl)phenyl]-cyclohexyl}amino)-2-hydroxypropyl]oxy}-2-(methylsulfonyl)phenol], the melting point was determined as 125 °C.

With `CS(=O)(=O)c1cc(OC[C@@H](O)CN[C@H]2CC[C@H](c3ccc(C(=O)N4CCC5(CCc6ccccc65)CC4)cc3)CC2)ccc1O` [compound No. 15, trans-4-{[(2S)-3-({4-[4-(2,3-dihydro-1′H-spiro[indene-1,4′-piperidin]-1′-ylcarbonyl)phenyl]-cyclohexyl}amino)-2-hydroxypropyl]oxy}-2-(methylsulfonyl)phenol], the melting point was determined as 125 °C.

On to `CS(=O)(=O)c1cc(OC[C@@H](O)CN[C@H]2CC[C@H](c3ccc(C(=O)N4CCC5(CCCc6ccccc65)CC4)cc3)CC2)ccc1O` [compound No. 17, trans-4-{[(2S)-3-({4-[4-(3,4-dihydro-1′H-spiro[naphthalene-1,4′-piperidin]-1′-ylcarbonyl)phenyl]cyclohexyl}amino)-2-hydroxypropyl]-oxy}-2-(methylsulfonyl)phenol], for which the melting point was found to be 125 °C.
